In the CheMixHub ionic liquid set:
± gives the uncertainty stated by the source.

Assay: xn = mol fraction of the nth substance listed
Conditions: 101 kPa, x2 = 0

Work on `CCCCCCCCCCCCOS(=O)(=O)[O-].[Na+]` + Cc1ncc(C[n+]2csc(CCO)c2C)c(N)n1.Cl.[Cl-] + O yielded an electrical conductivity (288.15 K, x1 = 7.35e-06) of 0.00102 ± 0.0006 S/m, an electrical conductivity (288.15 K, x1 = 1.463e-05) of 0.00278 ± 0.00061 S/m and an electrical conductivity (288.15 K, x1 = 2.184e-05) of 0.00515 ± 0.00061 S/m. The electrical conductivity (288.15 K, x1 = 2.898e-05) was 0.00708 ± 0.00062 S/m, the electrical conductivity (288.15 K, x1 = 3.604e-05) was 0.00931 ± 0.00064 S/m and the electrical conductivity (288.15 K, x1 = 4.303e-05) was 0.0116 ± 0.00066 S/m. For the same compound, the electrical conductivity (288.15 K, x1 = 4.997e-05) was 0.0139 ± 0.00069 S/m, the electrical conductivity (288.15 K, x1 = 5.683e-05) was 0.0162 ± 0.00072 S/m and the electrical conductivity (288.15 K, x1 = 6.362e-05) was 0.0186 ± 0.00071 S/m. For the same compound, the electrical conductivity (288.15 K, x1 = 7.036e-05) was 0.0202 ± 0.00072 S/m, the electrical conductivity (288.15 K, x1 = 7.703e-05) was 0.0225 ± 0.00079 S/m and the electrical conductivity (288.15 K, x1 = 8.364e-05) was 0.0247 ± 0.00083 S/m. For the same compound, the electrical conductivity (288.15 K, x1 = 9.018e-05) was 0.0269 ± 0.00081 S/m, the electrical conductivity (288.15 K, x1 = 9.658e-05) was 0.0286 ± 0.00082 S/m and the electrical conductivity (288.15 K, x1 = 0.0001031) was 0.0307 ± 0.0009 S/m. It also gave an electrical conductivity (288.15 K, x1 = 0.0001094) of 0.0328 ± 0.00095 S/m, an electrical conductivity (288.15 K, x1 = 0.0001157) of 0.035 ± 0.00098 S/m and an electrical conductivity (288.15 K, x1 = 0.000122) of 0.037 ± 0.00099 S/m. The electrical conductivity (288.15 K, x1 = 0.0001281) was 0.039 ± 0.0011 S/m, the electrical conductivity (288.15 K, x1 = 0.0001342) was 0.0411 ± 0.00099 S/m and the electrical conductivity (288.15 K, x1 = 0.0001404) was 0.0425 ± 0.00077 S/m. It also gave an electrical conductivity (288.15 K, x1 = 0.0001465) of 0.0432 ± 0.00075 S/m, an electrical conductivity (288.15 K, x1 = 0.0001524) of 0.0444 ± 0.00079 S/m and an electrical conductivity (288.15 K, x1 = 0.0001584) of 0.0452 ± 0.00078 S/m. The electrical conductivity (288.15 K, x1 = 0.0001641) was 0.0462 ± 0.00076 S/m, the electrical conductivity (288.15 K, x1 = 0.0001699) was 0.0469 ± 0.00075 S/m and the electrical conductivity (288.15 K, x1 = 0.0001757) was 0.0478 ± 0.00081 S/m. For the same compound, the electrical conductivity (288.15 K, x1 = 0.0001814) was 0.0487 ± 0.00082 S/m, the electrical conductivity (288.15 K, x1 = 0.000187) was 0.0495 ± 0.00077 S/m and the electrical conductivity (288.15 K, x1 = 0.0001928) was 0.0501 ± 0.00073 S/m. For the same compound, the electrical conductivity (288.15 K, x1 = 0.0001982) was 0.0507 ± 0.00073 S/m, the electrical conductivity (288.15 K, x1 = 0.0002038) was 0.0513 ± 0.0007 S/m and the electrical conductivity (288.15 K, x1 = 0.0002092) was 0.0517 ± 0.00068 S/m. The electrical conductivity (288.15 K, x1 = 0.0002147) was 0.0521 ± 0.00071 S/m, the electrical conductivity (288.15 K, x1 = 0.00022) was 0.0527 ± 0.00076 S/m and the electrical conductivity (288.15 K, x1 = 0.0002254) was 0.0532 ± 0.00076 S/m. The electrical conductivity (288.15 K, x1 = 0.0002306) was 0.0537 ± 0.00075 S/m, the electrical conductivity (288.15 K, x1 = 0.0002358) was 0.0542 ± 0.00077 S/m and the electrical conductivity (288.15 K, x1 = 0.0002411) was 0.0548 ± 0.00081 S/m. The electrical conductivity (288.15 K, x1 = 0.0002463) was 0.0554 ± 0.00084 S/m, the electrical conductivity (298.15 K, x1 = 7.35e-06) was 0.00389 ± 0.0006 S/m and the electrical conductivity (298.15 K, x1 = 1.463e-05) was 0.00675 ± 0.00061 S/m. The electrical conductivity (298.15 K, x1 = 2.184e-05) was 0.00896 ± 0.00062 S/m, the electrical conductivity (298.15 K, x1 = 2.898e-05) was 0.0117 ± 0.00064 S/m and the electrical conductivity (298.15 K, x1 = 3.604e-05) was 0.0145 ± 0.00066 S/m. The electrical conductivity (298.15 K, x1 = 4.303e-05) was 0.0171 ± 0.00068 S/m, the electrical conductivity (298.15 K, x1 = 4.997e-05) was 0.0198 ± 0.00071 S/m and the electrical conductivity (298.15 K, x1 = 5.683e-05) was 0.0224 ± 0.00072 S/m. For the same compound, the electrical conductivity (298.15 K, x1 = 6.362e-05) was 0.0244 ± 0.00074 S/m, the electrical conductivity (298.15 K, x1 = 7.036e-05) was 0.027 ± 0.00081 S/m and the electrical conductivity (298.15 K, x1 = 7.703e-05) was 0.0296 ± 0.00085 S/m. The electrical conductivity (298.15 K, x1 = 8.364e-05) was 0.0321 ± 0.00088 S/m, the electrical conductivity (298.15 K, x1 = 9.018e-05) was 0.0347 ± 0.00091 S/m and the electrical conductivity (298.15 K, x1 = 9.658e-05) was 0.0371 ± 0.00094 S/m. It also gave an electrical conductivity (298.15 K, x1 = 0.0001031) of 0.0395 ± 0.00098 S/m, an electrical conductivity (298.15 K, x1 = 0.0001094) of 0.0419 ± 0.001 S/m and an electrical conductivity (298.15 K, x1 = 0.0001157) of 0.0442 ± 0.001 S/m. For the same compound, the electrical conductivity (298.15 K, x1 = 0.000122) was 0.0466 ± 0.0011 S/m, the electrical conductivity (298.15 K, x1 = 0.0001281) was 0.0488 ± 0.0011 S/m and the electrical conductivity (298.15 K, x1 = 0.0001342) was 0.0509 ± 0.001 S/m. The electrical conductivity (298.15 K, x1 = 0.0001404) was 0.0524 ± 0.00098 S/m, the electrical conductivity (298.15 K, x1 = 0.0001465) was 0.0543 ± 0.001 S/m and the electrical conductivity (298.15 K, x1 = 0.0001524) was 0.0559 ± 0.00095 S/m. For the same compound, the electrical conductivity (298.15 K, x1 = 0.0001584) was 0.0571 ± 0.00086 S/m, the electrical conductivity (298.15 K, x1 = 0.0001641) was 0.0582 ± 0.00083 S/m and the electrical conductivity (298.15 K, x1 = 0.0001699) was 0.0592 ± 0.00082 S/m. For the same compound, the electrical conductivity (298.15 K, x1 = 0.0001757) was 0.0601 ± 0.00081 S/m, the electrical conductivity (298.15 K, x1 = 0.0001814) was 0.0609 ± 0.00081 S/m and the electrical conductivity (298.15 K, x1 = 0.000187) was 0.0617 ± 0.00082 S/m. The electrical conductivity (298.15 K, x1 = 0.0001928) was 0.0626 ± 0.00085 S/m, the electrical conductivity (298.15 K, x1 = 0.0001982) was 0.0634 ± 0.00083 S/m and the electrical conductivity (298.15 K, x1 = 0.0002038) was 0.0641 ± 0.00082 S/m. It also gave an electrical conductivity (298.15 K, x1 = 0.0002092) of 0.0648 ± 0.00083 S/m, an electrical conductivity (298.15 K, x1 = 0.0002147) of 0.0654 ± 0.00082 S/m and an electrical conductivity (298.15 K, x1 = 0.00022) of 0.066 ± 0.00083 S/m. The electrical conductivity (298.15 K, x1 = 0.0002254) was 0.0666 ± 0.00086 S/m, the electrical conductivity (298.15 K, x1 = 0.0002306) was 0.0673 ± 0.0009 S/m and the electrical conductivity (298.15 K, x1 = 0.0002358) was 0.068 ± 0.00091 S/m. For the same compound, the electrical conductivity (298.15 K, x1 = 0.0002411) was 0.0686 ± 0.00092 S/m and the electrical conductivity (298.15 K, x1 = 0.0002463) was 0.0693 ± 0.002 S/m.
